Experiments:
Format in all cases: in vivo
[1] = tested on: Plutella xylostella (Diamond Back Moth); test: Plutella xylostella feeding/contact activity on treated artificial diet; conditions: 120 h, application rate of 200 ppm, L2 larvae, assessed 5 days after infestation, read-out: control (mortality)
Procedure: Plutella xylostella (Diamond Back Moth): Feeding/Contact Activity
24-well microtiter plates with artificial diet were treated with aqueous test solutions prepared from 10′000 ppm DMSO stock solutions by pipetting. After drying, the plates were infested with L2 larvae (10 to 15 per well). The samples were assessed for mortality 5 days after infestation.

[2] = tested on: Myzus persicae (Green Peach Aphid); test: Myzus persicae feeding/contact activity on sprayed sunflower leaf discs; conditions: foliar, 144 h, application rate of 200 ppm, aphid population of mixed ages, assessed 6 days after infestation, read-out: control (mortality)
Procedure: Myzus persicae (Green Peach Aphid): Feeding/Contact Activity
(§1) Sunflower leaf discs were placed onto agar in a 24-well microtiter plate and sprayed with aqueous test solutions prepared from 10′000 ppm DMSO stock solutions. After drying, the leaf discs were infested with an aphid population of mixed ages. The samples were assessed for mortality 6 days after infestation.

[3] = tested on: Diabrotica Balteata (Corn Root Worm); test: Diabrotica balteata (corn root worm) mortality on sprayed maize sprouts; conditions: 96 h, application rate of 200 ppm, L2 larvae, assessed 4 days after infestation, read-out: control (mortality)
Procedure: Diabrotica Balteata (Corn Root Worm):
Maize sprouts placed onto an agar layer in 24-well microtiter plates were treated with aqueous test solutions prepared from 10′000 ppm DMSO stock solutions by spraying. After drying, the plates were infested with L2 larvae (6 to 10 per well). The samples were assessed for mortality 4 days after infestation.

[4] = tested on: Spodoptera littoralis (Egyptian Cotton Leaf Worm); test: Spodoptera littoralis feeding/contact activity on sprayed cotton leaf discs; conditions: foliar, 72 h, application rate of 200 ppm, L1 larvae, assessed 3 days after infestation, read-out: control (mortality)
Procedure: Spodoptera littoralis (Egyptian Cotton Leaf Worm): Feeding/Contact Activity
Cotton leaf discs were placed onto agar in 24-well microtiter plates and sprayed with aqueous test solutions prepared from 10′000 ppm DMSO stock solutions. After drying the leaf discs were infested with five L1 larvae. The samples were assessed for mortality 3 days after infestation.

[5] = tested on: Tetranychus urticae (Two-Spotted Spider Mite); test: Tetranychus urticae feeding/contact activity on sprayed bean leaf discs; conditions: foliar, 192 h, application rate of 200 ppm, mite population of mixed ages, assessed 8 days after infestation, read-out: control (mortality on mixed population, mobile stages)
Procedure: Tetranychus urticae (Two-Spotted Spider Mite): Feeding/Contact Activity
Bean leaf discs on agar in 24-well microtiter plates were sprayed with aqueous test solutions prepared from 10′000 ppm DMSO stock solutions. After drying the leaf discs were infested with a mite population of mixed ages. The samples were assessed for mortality on mixed population (mobile stages) 8 days after infestation.

[6] = tested on: Euschistus heros (Neotropical Brown Stink Bug); test: Euschistus heros feeding/contact activity on sprayed soybean leaves; conditions: 120 h, application rate of 200 ppm, N2 nymphs, assessed 5 days after infestation, read-out: control (mortality)
Procedure: Euschistus heros (Neotropical Brown Stink Bug): Feeding/Contact Activity
Soybean leaves on agar in 24-well microtiter plates were sprayed with aqueous test solutions prepared from 10′000 ppm DMSO stock solutions. After drying the leaves were infested with N2 nymphs. The samples were assessed for mortality 5 days after infestation.

[7] = tested on: Thrips tabaci (Onion thrips); test: Thrips tabaci feeding/contact activity on sprayed sunflower leaf discs; conditions: foliar, 144 h, application rate of 200 ppm, thrips population of mixed ages, assessed 6 days after infestation, read-out: control (mortality)
Procedure: Thrips tabaci (Onion thrips): Feeding/Contact Activity
as §1, with “on” for “onto”, “in” for “in a”, “plates” for “plate”, “drying” for “drying,”, “a thrips” for “an aphid”

Measured: mortality at 200 ppm

Cn1c(Br)cc(C(F)(C(F)(F)F)C(F)(F)F)c1-c1cc(-c2ccc(Cl)c(C(=O)NC3(C#N)CC3)c2)on1 [Compound 7, 5-[3-[5-bromo-1-methyl-3-[1,2,2,2-tetrafluoro-1-(trifluoromethyl)ethyl]pyrrol-2-yl]isoxazol-5-yl]-2-chloro-N-(1-cyanocyclopropyl)benzamide]
≥ 80%: [1] | [2] | [3] | [4]

Cn1cc(C(F)(F)F)c(C(F)(F)C(F)(F)F)c1-n1cc(-c2cc(C(=O)NC3CC3)c(C#N)s2)cn1 [Compound 2, 2-cyano-N-cyclopropyl-5-[1-[1-methyl-3-(1,1,2,2,2-pentafluoroethyl)-4-(trifluoromethyl)pyrrol-2-yl]pyrazol-4-yl]thiophene-3-carboxamide]
not listed: [7]
≥ 80%: all other assays above

Cn1cc(C(F)(F)C(F)(F)F)c(C(F)(F)F)c1-c1cc(-c2cc(C(=O)NC3CC3)c(C#N)s2)on1 [Compound 3, 2-cyano-N-cyclopropyl-5-[3-[1-methyl-4-(1,1,2,2,2-pentafluoroethyl)-3-(trifluoromethyl)pyrrol-2-yl]isoxazol-5-yl]thiophene-3-carboxamide]
not listed: [2]
≥ 80%: all other assays above

Cn1c(-n2cc(-c3ccc(Cl)c(C(=O)NC4(C#N)CC4)c3)cn2)cc(C(F)(C(F)(F)F)C(F)(F)F)c1Cl [Compound 5, 2-chloro-5-[1-[5-chloro-1-methyl-4-[1,2,2,2-tetrafluoro-1-(trifluoromethyl)ethyl]pyrrol-2-yl]pyrazol-4-yl]-N-(1-cyanocyclopropyl)benzamide]
≥ 80%: [5] | [1] | [3] | [4]

Cn1cc(C(F)(F)C(F)(F)F)c(C(F)(F)F)c1-n1cc(-c2cc(C(=O)NC3CC3)c(C#N)s2)cn1 [Compound 1, 2-cyano-N-cyclopropyl-5-[1-[1-methyl-4-(1,1,2,2,2-pentafluoroethyl)-3-(trifluoromethyl)pyrrol-2-yl]pyrazol-4-yl]thiophene-3-carboxamide]
≥ 80%: all assays above

Cn1c(Cl)c(C(F)(C(F)(F)F)C(F)(F)F)c(Br)c1-n1cc(-c2ccc(Cl)c(C(=O)NC3(C#N)CC3)c2)cn1 [Compound 6, 5-[1-[3-bromo-5-chloro-1-methyl-4-[1,2,2,2-tetrafluoro-1-(trifluoromethyl)ethyl]pyrrol-2-yl]pyrazol-4-yl]-2-chloro-N-(1-cyanocyclopropyl)benzamide]
≥ 80%: [5] | [1] | [3] | [4]

Cn1cc(C(F)(F)F)c(C(F)(F)C(F)(F)F)c1-c1cc(-c2cc(C(=O)NC3CC3)c(C#N)s2)on1 [Compound 4, 2-cyano-N-cyclopropyl-5-[3-[1-methyl-3-(1,1,2,2,2-pentafluoroethyl)-4-(trifluoromethyl)pyrrol-2-yl]isoxazol-5-yl]thiophene-3-carboxamide]
not listed: [2] | [6]
≥ 80%: all other assays above

From US11384074B2, “Pesticidally active pyrrole derivatives” (Syngenta Participations AG, priority 2017, dated 2022)
